# According to BindingDB's records for doi:10.7270/Q2MP51PC (Pcmd, 2008):
# pIC50: −log10 of the molar value.
# Biological target: T1, Complement C1s subcomponent (Homo sapiens, UniProt P09871)
# T1 sequence (P09871 whole entry): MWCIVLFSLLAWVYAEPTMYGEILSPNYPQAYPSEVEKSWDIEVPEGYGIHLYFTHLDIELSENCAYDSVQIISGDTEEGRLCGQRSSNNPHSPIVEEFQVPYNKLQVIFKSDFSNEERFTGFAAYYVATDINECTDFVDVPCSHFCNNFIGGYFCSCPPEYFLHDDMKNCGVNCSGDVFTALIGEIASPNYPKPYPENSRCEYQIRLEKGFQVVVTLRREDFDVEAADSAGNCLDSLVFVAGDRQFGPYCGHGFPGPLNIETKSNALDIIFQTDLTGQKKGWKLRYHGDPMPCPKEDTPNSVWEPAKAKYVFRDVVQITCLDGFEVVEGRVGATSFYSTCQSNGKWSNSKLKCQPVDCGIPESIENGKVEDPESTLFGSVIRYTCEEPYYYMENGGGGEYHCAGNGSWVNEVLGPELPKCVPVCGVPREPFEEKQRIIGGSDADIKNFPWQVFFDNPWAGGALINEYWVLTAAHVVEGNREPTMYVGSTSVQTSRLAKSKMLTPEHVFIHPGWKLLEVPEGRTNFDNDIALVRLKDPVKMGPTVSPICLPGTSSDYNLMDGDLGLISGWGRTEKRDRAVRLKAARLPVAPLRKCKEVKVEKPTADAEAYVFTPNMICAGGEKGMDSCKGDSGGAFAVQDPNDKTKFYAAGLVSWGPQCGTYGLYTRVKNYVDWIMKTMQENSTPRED
# Assay: C1s inhibitor IC50 values, dose response, biochemical (AID 787)
row,SMILES,pIC50
1,Cc1ccc(S(=O)(=O)n2nc(OC(=O)c3cccs3)cc2N)cc1,< 4.30
2,CCOC(=O)c1c(C)n(C(=O)c2ccco2)c(=O)n1C(=O)c1ccco1,5.07
3,C#CCOC(=O)c1ccccc1C(=O)n1nnc2ccccc21,5.37
4,CCSc1ccccc1C(=O)n1nnc2ccccc21,4.51
5,O=C(c1ccc2c(c1)OCO2)n1nnc2ccccc21,6.07
6,O=C(O)[C@@H](c1ccccc1)N1Cc2ccccc2C1=O,< 4.30
7,O=C(O)COCc1nc2ccccc2[nH]1,< 4.30
8,COc1cccc(C2=Nc3nnnn3C(c3cccc(OC)c3OC)C2)c1 (configuration not stated),< 4.30
9,"COc1cccc(N2C(=O)N(c3ccccc3Cl)C3CS(=O)(=O)CC32)c1 (configuration not stated) [1-(2-chlorophenyl)-3-(3-methoxyphenyl)tetrahydro-1H-thieno[3,4-d]imidazol-2(3H)-one 5,5-dioxide]",< 4.30
10,"CCN1CCN(c2ccc(-n3c(C)nc4c(cnn4-c4ccccc4Cl)c3=O)cc2)CC1 [1-(2-chlorophenyl)-5-[4-(4-ethyl-1-piperazinyl)phenyl]-6-methyl-4-pyrazolo[3,4-d]pyrimidinone]",< 4.30
11,"COc1ccc(-c2nc(SC)n(C(=O)c3ccco3)n2)cc1 [1-(2-furoyl)-3-(4-methoxyphenyl)-5-(methylthio)-1H-1,2,4-triazole]",4.81
12,O=C(c1ccco1)N1C(=O)c2cccc3cccc1c23 [1-(2-furoyl)benzo[cd]indol-2(1H)-one],< 4.30
13,"CCOC(=O)C1CCN(C(=O)c2cc(OCC)c(OCC)c(OCC)c2)CC1 [1-(3,4,5-triethoxybenzoyl)isonipecotic acid ethyl ester]",< 4.30
14,"O=C(c1csc2c1CCCC2)n1cccn1 [1-(4,5,6,7-tetrahydro-1-benzothien-3-ylcarbonyl)-1H-pyrazole]",5.42
15,"CCOC(=O)c1nnn(-c2nonc2N)c1CN(C)C1CCCCC1 [1-(4-amino-1,2,5-oxadiazol-3-yl)-5-[[cyclohexyl(methyl)amino]methyl]-4-triazolecarboxylic acid ethyl ester]",< 4.30
16,"CCOc1ccc(-n2c(O)cc(N3CCN(c4ccccc4F)CC3)c2O)cc1 [1-(4-ethoxyphenyl)-3-[4-(2-fluorophenyl)-1-piperazinyl]-2,5-pyrrolidinedione]",< 4.30
17,"Cc1ccc(Cn2ncc3c(N4CCN(c5ccccc5C)CC4)ncnc32)cc1 [1-(4-methylbenzyl)-4-[4-(2-methylphenyl)-1-piperazinyl]-1H-pyrazolo[3,4-d]pyrimidine]",< 4.30
18,CC(C)CN(CC(C)C)S(=O)(=O)N1CCC(C(=O)NCc2ccc(F)cc2)CC1 [1-(diisobutylsulfamoyl)-N-(4-fluorobenzyl)isonipecotamide],< 4.30
19,CCOC(=O)C1CCN(C(=O)CSc2ccccc2)CC1 [1-[1-oxo-2-(phenylthio)ethyl]-4-piperidinecarboxylic acid ethyl ester],< 4.30
20,"COc1cc(-c2nnc(SCC(=O)c3cc(C)n(CC4CCCO4)c3C)o2)cc(OC)c1OC (configuration not stated) [1-[2,5-dimethyl-1-(2-oxolanylmethyl)-3-pyrrolyl]-2-[[5-(3,4,5-trimethoxyphenyl)-1,3,4-oxadiazol-2-yl]thio]ethanone]",< 4.30
21,"CCCC(=O)n1nc(-c2ccco2)nc1SCc1ccccc1 [1-[3-(2-furanyl)-5-(phenylmethylthio)-1,2,4-triazol-1-yl]-1-butanone]",< 4.30
22,"CCC(=O)n1nc(-c2ccco2)nc1SCc1ccccc1 [1-[3-(2-furanyl)-5-(phenylmethylthio)-1,2,4-triazol-1-yl]-1-propanone]",< 4.30
23,COc1ccc(C(=O)n2nnc3ccccc32)cc1Br [1-benzotriazolyl-(3-bromo-4-methoxyphenyl)methanone],5.25
24,"Cn1c(=O)c2[nH]c(NCC3CCCO3)nc2n(-c2ccccc2)c1=O (configuration not stated) [1-methyl-8-(2-oxolanylmethylamino)-3-phenyl-7H-purine-2,6-dione]",< 4.30
25,"O=C(Nc1cccc(F)c1)c1c(F)c(F)c(F)c(F)c1F [2,3,4,5,6-pentafluoro-N-(3-fluorophenyl)benzamide]",< 4.30
26,"Cc1nc(CNS(=O)(=O)c2cc(C)c(C)cc2C)cs1 [2,4,5-trimethyl-N-[(2-methyl-1,3-thiazol-4-yl)methyl]benzenesulfonamide]",< 4.30
27,"O=C1CCCC2=NC(Nc3nc4ccccc4o3)=NC3(CCCCC3)C12 (configuration not stated) [2-(1,3-benzoxazol-2-ylamino)-5-spiro[1,6,7,8-tetrahydroquinazoline-4,1'-cyclohexane]one]",< 4.30

# Further lines, results first:
row,pIC50,SMILES
1,< 4.30,"COCCn1c(C)cc(C(=O)CSc2nc3ccccc3o2)c1C [2-(1,3-benzoxazol-2-ylsulfanyl)-1-[1-(2-methoxyethyl)-2,5-dimethyl-pyrrol-3-yl]ethanone]"
2,< 4.30,"Cc1sc2nc(-c3ccco3)oc(=O)c2c1C [2-(2-furanyl)-5,6-dimethyl-4-thieno[2,3-d][1,3]oxazinone]"
3,< 4.30,"Cc1c(NC(=O)C2Cc3ccccc3CN2C(=O)c2ccco2)c(=O)n(-c2ccccc2)n1C (configuration not stated) [2-(2-furoyl)-N-(3-keto-1,5-dimethyl-2-phenyl-3-pyrazolin-4-yl)-3,4-dihydro-1H-isoquinoline-3-carboxamide]"
4,< 4.30,Cc1cc(NS(=O)(=O)c2ccc(NC(=O)COc3ccccc3C(C)C)cc2)no1 [2-(2-isopropylphenoxy)-N-[4-[(5-methylisoxazol-3-yl)sulfamoyl]phenyl]acetamide]
5,< 4.30,"COc1ccc(CC(=O)Nc2cccc(-c3nnc(-c4cccc(C)c4)o3)c2)cc1OC [2-(3,4-dimethoxyphenyl)-N-[3-[5-(3-methylphenyl)-1,3,4-oxadiazol-2-yl]phenyl]acetamide]"
6,< 4.30,"CC(=O)c1cn(CC(=O)NCc2ccc3c(c2)OCO3)c2ccccc12 [2-(3-acetyl-1-indolyl)-N-(1,3-benzodioxol-5-ylmethyl)acetamide]"
7,< 4.30,COC(=O)COc1cccc(NC(=O)c2ccccc2)c1 [2-(3-benzamidophenoxy)acetic acid methyl ester]
8,< 4.30,"Cc1cc(C)c2c(CC(=O)NCc3ccco3)coc2c1 [2-(4,6-dimethyl-1-benzofuran-3-yl)-N-(2-furylmethyl)acetamide]"
9,< 4.30,CN(C)c1ccc(C(=O)c2ccccc2C(=O)O)c(O)c1 [2-(4-Dimethylamino-2-hydroxy-benzoyl)-benzoic acid]
10,< 4.30,O=C(O)CCCC(=O)Nc1ccccc1C(=O)O [2-(4-carboxybutanoylamino)benzoic acid]
11,< 4.30,COc1ccc(NC(=O)CSC2CCCCC2)cc1 [2-(cyclohexylthio)-N-(4-methoxyphenyl)acetamide]
12,< 4.30,O=C(Cc1ccc(-c2ccccc2)cc1)NCCN1CCOCC1 [2-Biphenyl-4-yl-N-(2-morpholin-4-yl-ethyl)-acetamide]
13,5.34,"O=c1oc(-c2ccco2)nc2ccccc12 [2-Furan-2-yl-benzo[d][1,3]oxazin-4-one]"
14,< 4.30,"Cc1nn(C)c(C)c1NC(=O)c1ccnn1C [2-Methyl-2H-pyrazole-3-carboxylic acid (1,3,5-trimethyl-1H-pyrazol-4-yl)-amide]"
15,< 4.30,"CC(C)(C)NC(=O)C(c1ccco1)N(Cc1ccc2c(c1)OCO2)C(=O)Cn1nnc2ccccc21 (configuration not stated) [2-[1,3-benzodioxol-5-ylmethyl-[2-(1-benzotriazolyl)-1-oxoethyl]amino]-N-tert-butyl-2-(2-furanyl)acetamide]"
